Test system: CD44
Assay: Expression of CD44 on cultured normal human skin explants, indirect immunoperoxidase histochemistry
Assay type: cell-based
Settings: for Histochemical analysis of the CD44 receptor (semiquantitative scores), Mean ± sd n = 8: skin explants cultured 14 days
Method: CD44 is a transmembrane glycoprotein with a molecular weight of 80-95 kDa (CD44). The increase in the expression of this receptor at the surface of the cells of the skin improves the binding of hyaluronic acid, collagen and fibronectin. This binding makes possible in particular hydration of the dermis and epidermis.
Normal human skin fragments are obtained by plastic surgery and are deposited in culture plates. The skin explants are cultured for 14 days and compound A is added daily at 0.3 or 3 mM. At the end of culturing, the skin explants are fixed in Bouin's fluid and embedded in paraffin wax. Sections are produced and the receptor is visualized by a 3-layer indirect immunoperoxidase technique (ABC peroxidase kit, Vector Laboratories).
Histochemical analysis of the CD44 receptor (semiquantitative scores);

`CC(O)C[C@@H]1OC[C@@H](O)[C@H](O)[C@H]1O` (stereo partly drawn) [compound A, C-β-D-xylopyranoside-2-hydroxypropane] was tested, and the “activity on expression of CD44 (in words)” value (0.3 mM) was “present”, the “activity on expression of CD44 (in words)” value (higher concentration (3 mM)) was “again encountered” and the “Histochemical analysis of the CD44 receptor (semiquantitative scores), Mean ± sd n = 8” value (compound added daily at 0.3 mM) was 2.30 ± 1.00. The “Histochemical analysis of the CD44 receptor (semiquantitative scores), Mean ± sd n = 8” value (compound added daily at 3.0 mM) was 2.00 ± 1.10 and the “expression of CD44 (histological evaluation, in words)” value (skin explants treated daily for 14 days) was “significant increase”.

From patent US20100190742A1, “COSMETIC/PHARMACEUTICAL COMPOSITIONS COMPRISING HYALURONIC ACID AND ADMINISTRATION THEREOF FOR REDUCING SIGNS OF AGING” (L'OREAL, priority 2007, published 2010)
